Measured values reported in patent EP0094586A2, “Glycerol derivatives, process for preparing same and pharmaceutical composition containing same” (ONO PHARMACEUTICAL CO., LTD., priority 1982, dated 1983).

How the values were obtained:
[1] = target: phospholipase C obtained from lung of guinea-pig; assay: Inhibitory effect on phospholipase C (method of Rittenhouse-Simmons, 3H-labelled phosphatidyl-inositol substrate); assay type: biochemical; settings: enzyme from lung of guinea-pig; substrate 3H-myoinositol labelled phosphatidyl-inositol from rat liver microsome
Procedure: (3) Inhibitory effect on phospholipase C
The activity of the enzyme was examined by the method of Rittenhouse-Simmons by using ^3H-myoinsitol labelled phosphatidyl-inositol biosynthesized in microsome of liver in rat as substrate and phospholipase C obtained from lung of guinea-pig as enzyme [cf. J. Clin. Invest., 63, 580 (1979)].
(§1) The evaluation is conducted using the concentration of compounds of the present invention required to produce a 50% inhibition of each effect, i.e. IC50.

[2] = target: phospholipase A2 obtained from lung of guinea-pig; assay: Inhibitory effect on phospholipase A2 (modified method of Shakir, 14C-arachidonyl phosphatidylcholine substrate); assay type: biochemical; settings: enzyme from lung of guinea-pig; substrate L-B-[1-14C]-arachidonyl-a'-stearoyl-phosphatidylcholine
Procedure: (2) Inhibitory effect on phospholipase A
The activity of the enzyme was examined by modification of the method of Shakir by using L-B-[1-^14C]- arachidonyl-a'-stearoyl-phosphatidylcholine as substrate and phospholipase A2 obtained from lung of guinea-pig as enzyme [cf. Anal. Biochem., 114, 67 (1981)].
as §1

mice = assay: Acute toxicity by intravenous administration; assay type: in vivo; settings: intravenously administered to tail vein in ten mice at the dose of 30 mg/kg
Procedure: On the other hand, it was confirmed that the acute toxicity of all extent of the compounds of the present invention was more than 30 mg/kg by intravenous administration. Therefore, glycerol derivatives of the present invention may be considered to be sufficiently safe and suitable for medical use. For example, the mortality (dead/used) in glycerol derivatives of the present invention, i.e. compounds prepared in Example l(g), l(v), 5(d), 12(b), 12(n), 12(o), 12(s) and 12(x) was 0/10, 0/10, 0/10, 1/10/ 0/10, 0/10, 0/10 and 0/10, respectively, when each glycerol compound was intravenously administered to tail vein in ten mice at the dose of 30 mg/kg.

[3] = target: PAF-induced platelet aggregation (Cavia porcellus, UniProt P21556); assay: Inhibitory effect on PAF-induced platelet aggregation (method of Born, platelet rich plasma); assay type: cell-based; settings: platelet rich plasma from male guinea-pig; PAF (10 nM)-induced aggregation
Procedure: (1) Inhibitory effect on PAF-induced platelet aggregation
A mixture of 9 parts of blood obtained from male guinea-pig, and one part of 3.8X trisodium citrate was centrifuged for 10 minutes at 120 x g at room temperature to obtain platelet rich plasma (PRP). Using obtained PRP, PAF (lOnM)-induced aggregation was determined by the method of Born [cf. J. Physiol., 162, 67 (1962)].
as §1

Chain of PAF-induced platelet aggregation (P21556 whole entry): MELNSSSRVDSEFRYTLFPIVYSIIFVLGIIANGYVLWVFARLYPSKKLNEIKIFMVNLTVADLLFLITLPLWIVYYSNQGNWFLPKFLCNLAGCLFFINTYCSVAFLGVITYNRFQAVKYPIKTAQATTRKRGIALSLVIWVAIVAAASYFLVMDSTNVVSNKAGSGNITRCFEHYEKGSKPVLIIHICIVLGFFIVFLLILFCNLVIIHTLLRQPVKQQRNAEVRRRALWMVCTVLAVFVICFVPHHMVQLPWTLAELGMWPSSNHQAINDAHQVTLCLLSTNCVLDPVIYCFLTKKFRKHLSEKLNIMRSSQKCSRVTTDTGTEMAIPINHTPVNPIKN

Compound | IC50 [1] | IC50 [2] | mortality (dead/used) (mice) | IC50 [3]
CCCCCCCCCCCCCCCCOCC(COCCCC[N+](C)(C)C)OCc1ccccc1 (racemic) [1 (g), (2RS)-l-0-hexadecyl-2-0-benzyl-3-0-[4-(N,N,N-trimethylammonio)butyl]glycerol chloride] | 180 µM | 130 µM | 0/10 | 
CCCCCCCCCCCCCCCCOCC(COC(=O)CCC[N+](C)(C)C)OCc1ccccc1 (racemic) [1 (v), (2RS)-1-0-hexadecyl-2-0-benzyl-3-0-[4-(N,N,N-trimethylammonio)-butyryl]glycerol halide] |  |  | 0/10 | 
CCCCCCCCCCCCCCCCOCC(O)COCCCC[N+](C)(C)C (racemic) [5 (d), (2RS)-1-0-hexadecyl-3-0-[4-(N,N,N-trimethylammonio)butyl]glycerol halide] | 660 µM | 240 µM | 0/10 | 
CCCCCCCCCCCCCCCCSCC(COCCCC[N+](C)(C)C)OCc1ccccc1 (racemic) [12 (b), (2RS)-1-hexadecylthio-2-0-benzyl-3-0-[4-(N,N,N-trimethylammanio)-butyl]-2,3-propanediol halide] |  |  | 1/10 | 
CCCCCCCCCCCCCCCCOCC(COCCCC[N+](C)(C)C)OC(=O)c1ccccc1 (racemic) [12 (n), (2RS)-l-0-hexadecyl-2-0-benzoyl-3-0-[4-(N,N,N-trimethylammonio)-butyl]glycerol halide] |  |  | 0/10 | 
CCCCCCCCCCCCCCCCOCC(COCCCC[N+](C)(C)C)OC(=O)NC (racemic) [12 (o), (2RS)-1-0-hexadecyl-2-0-(N-methylcarbaraoyl)-3-0-[4-(N,N,N-trimethylammonio)butyl]glycerol halide] |  |  | 0/10 | 
CCCCCCCCCCCCCCCCOCC(COCCCC[N+](C)(C)C)SCC (racemic) [12 (s), (2RS)-l-0-hexadecyl-2-ethylthio-3-0-[4-(N,N,N-trimethylammonio)-butyl]-1,3-propanediol halide] |  |  | 0/10 | 
(2RS)-1-0-hexadecyl-2-[ethoxy(thiocarbonyl)thio]-3-0-[4-(N,N,N-trimethylammonio)butyl]-1,3-propanediol halide [12 (x)] | 200 µM | 240 µM | 0/10 | 3.8 µM
